Experimental data as given in patent US20220333153A1, “ULTRASENSITIVE ELECTROCHEMICAL BIOSENSORS” (MOLECULAR WAREHOUSE, LTD., priority 2016, published 2022).

What was measured:
[1] = GDH enzymatic activity of the chimeric proteins themselves; assay type: biochemical
Procedure: (§1) The GDH enzyme assay was performed as described by Yu et al.^20 Briefly, the 1.5-mL assay system consisted of 20 mM glucose, 0.6 mM phenazine methosulfate, 0.06 mM […], 10 mM MOPS (pH 7.0), and corresponding concentration of CaCl2 and enzyme. The enzymatic assay was performed at 25° C. by monitoring the reduction in the absorbance of […] at 600 nm.
We conjectured that dislocation of either of these residues will impact the catalysis and if carried out in a reversible fashion could utilized for controlling enzymes activity. To test this idea we inserted calmodulin (CaM) domain into GDH at the position 330 and produced the resulting CaM-GDH chimeric protein (SEQ ID NO: 10) in recombinant form. […] The activity of fully activated fusion represented 50% of activity of the wild-type protein. […] We therefore concluded that we successfully constructed a peptide regulated GDH biosensor module.
We next decided to test if the developed allosteric module can be used to construct a generic biosensor architecture. To this end we fused the developed CaM-GDH chimera C-terminally with rapamycin-binding FKBP domain (SEQ ID NO: 11) and produced the protein in recombinant form. […] We then constructed a fusion between FKBP binding partner FRB and CaM-BP that would associate with the former reporter molecule in the rapamycin dependent fashion. […]

[2] = tested on: affinity clamp-GDH chimera (SEQ ID NO: 25); assay: OFF switch: inhibition of GDH activity of affinity clamp-GDH chimera by PDZ peptides; assay type: biochemical; conditions: 10 nM chimera; 1 μM strong or 2 μM weak peptide ligand
Description: (§2) FIG. 5. Development and applications of an OFF switch biosensor based on GDH. […] (C) as in B but using the biosensor with the optimized linkers between the affinity clamp and the GDH, titrated with the increasing concentrations of the strong ligand peptide. (D) A dissociative biosensor architecture based on the developed affinity clamp-GDH biosensor. The star denotes the ligand either genetically fused or conjugated to the regulatory domain. (E) Exemplification of the design shown in D with a biosensor for IL18: the ligand is IL18 and the binder is IL18 binding protein. […] (G) As in D but using a binder that competitively associates with the receptor domain and is dislodged by the binding of the ligand.
as §1
So far all presented biosensor architectures were designed to increase the GDH activity upon association with the analyte. While this is a common strategy it creates potential problems when binding of two protein modules to a single small molecule is required. […]

[3] = tested on: affinity clamp-GDH IL18 binding protein chimera (SEQ ID NO: 37) with IL18-affinity-clamp ligand fusion (SEQ ID NO: 38); assay: IL18 dissociative biosensor, GDH activity; assay type: biochemical; conditions: 10 nM SEQ ID NO: 37, 50 nM SEQ ID NO: 38; 0 to 2.5 μM IL18
Description: as §2
The developed GDH —based OFF switch can be converted into biosensors of small molecules and biological polymers such as proteins and nucleic acids by fusing it to the appropriate binding domains (FIG. 5D) FIG. 5E depicts an IL18 biosensor that was generated incorporating a GDH-based OFF switch based on a fusion with IL18 binding protein, where the ligand is IL18 and the binder IL18 binding protein.

[4] = biological target: PDZ domain binding peptide; conditions: read-out: affinity for PDZ domain binding peptide; cited from earlier work

In the case of “CaM-GDH chimeric protein: PQQ-GDH with calmodulin domain inserted at position 330, recombinant”, the “GDH activity of the protein without activating ligand” value ([1]; absence of CaM-BP / activating ligand) is reported as “some GDH activity” and the “activity of fully activated fusion as share of activity of the wild-type protein” value ([1]; fully activated by CaM-BP) is reported as 50%.

With “RGSIDTWV (PDZ peptide (ePDZ ligand, high affinity)) [SEQ ID NO: 27]” the “inhibition of GDH activity of affinity clamp-GDH chimera” value [2] was “stronger inhibition of GDH activity than the weaker ligand”.

B1: IL18: cytokine analyte of the dissociative biosensor (protein)
chain: GYFGKLESKLSVIRNLNDQVLFIDQGNRPLFEDMTDSDSRDNAPRTIFIISMYKDSQPRGMAVTISVKSEKISTLSSENKIISFKEMNPPDNIKDTKSDIIFFQRSVPGHDNKMQFESSSYEGYFLASEKERDLFKLILKKEDELGDRSIMFTVQNEDG
modifications: Interleukin-18
notes: cytokine analyte of the dissociative biosensor
In the case of B1, the “detection by IL18 biosensor (GDH activity)” value [3] is reported as “dose-dependent detection”.

B2: affinity clamp: circularly permutated Erbin PDZ domain linked to engineered fibronectin type III (FN3) (protein)
chain: EDAPESPELGFSISGGVGGRGNPFRPDDDGIFVTRVQPEGPASKLLQPGDKIIQANGYSFINIEHGQAVSLLKTFQNTVELIIVREVGNGAKQEIRVRVEKDGGSGGVSSVPTNLEVVAATPTSLLISWDAYRELPVSYYRITYGETGGNSPVQEFTVPGSKSTATISGLKPGVDYTITVYAHYNYHYYSSPISINYRGPG
modifications: ePDZ domain
In the case of B2, the Kd [4] is listed as < 1 nM.
